# Laboratory results as given in patent EP4306108A1, “5-AMINOLEVULINIC ACID, OR AN ESTER THEREOF FOR USE IN TREATMENT OF CANCER BASED ON THE INHIBITION OF LACTATE DEHYDROGENASE” (Theodossiou, Theodossis, priority 2022, dated 2024).
# What was measured:
# LN18 [1] = test: Seahorse XFe96 metabolic assay (OCR/ECAR), in-situ injection of 5-ALA; type: cell-based, human; conditions: LN18 cells; 5-ALA 500 - 1000 µM injected in situ; Figure 1
# Procedure: (§1) The cells used in the present examples were human glioblastoma multiforme (GBM) cell lines, purchased from the American Type Culture Collection (ATCC, Manassas, VA, USA). These cell lines were LN18 (ATCC®, CRL-2610™), U87 (ATCC®, HTB-14™), T98G (ATCC®, CRL-1690™) and M059K (ATCC®, CRL-2365™). All cells were grown in RPMI 1640 without phenol red, supplemented with 10% fetal bovine serum (FBS) and penicillin/streptomycin at 37 °C in a 5% CO2 and 95% humidified atmosphere.
# (§2) In order to study the changes in cell metabolism in GBM cells following the in-situ addition of 5-ALA, the Seahorse XFe96 analyzer (Agilent Technologies) was employed. Briefly, 4×10^4 cells were seeded in a seahorse plate and incubated overnight in complete RPMI 1640 medium at 37 °C, and a 5% CO2 humidified atmosphere. One hour prior to the experiments, the cells had their media changed to unbuffered XF RPMI pH 7.4 medium supplemented with 10 mM glucose, 2 mM L-glutamine, and 2 mM sodium pyruvate and were incubated for one hour at 37 °C, 0% CO2 atmosphere. The basal oxygen consumption and media acidification rates (OCR and ECAR respectively) of the cell groups were measured in four cycles. After those four cycles injections of i) 5-ALA (500 - 1000 µM), ii) Oligomycin A (OLIGO) 1 µM, iii) Carbonyl cyanide 4-(trifluoromethoxy)phenylhydrazone (FCCP) 1 µM and iv) Antimycin A (ANTI A) and Rotenone (ROT) 2 µM each were sequentially performed for 3 measurement cycles each.
# MO59K = test: as above; type: cell-based, human; conditions: MO59K cells; 5-ALA 500 - 1000 µM injected in situ; Figure 1
# Procedure: as §1, §2
# T98G [2] = test: as above; type: cell-based, human; conditions: T98G cells; 5-ALA 500 - 1000 µM injected in situ; Figure 1
# Procedure: as §1, §2
# U87 [3] = test: as above; type: cell-based, human; conditions: U87 cells; 5-ALA 500 - 1000 µM injected in situ; Figure 1
# Procedure: as §1, §2
# LN18 [4] = test: Seahorse XF Real-Time ATP Rate Assay; type: cell-based, human; conditions: LN18 cells; 1000µM of 5-ALA; change versus control
# Procedure: as §1, §2
# (§3) The ATP contributions of mitochondrial respiration and cell glycolysis in U87, T98G, M059K and LN18 human GBM cells in the presence or absence of 5-ALA, were deconvoluted quantified by use of the Seahorse XF Real-Time ATP Rate Assay Kit. In brief the same protocol as in Example 1 was followed without the injection of FCCP and with only three basal measurement cycles, while the corresponding final concentrations of OLIGO and ROT/ANTI A were this time 1.5 and 0.5 µM. The ATP rates were determined with use of the Agilent Seahorse XF Real-Time ATP Rate Assay Report Generator.
# (§4) The wells in the bottom row of the seahorse plates were in all cases left devoid of cells and were used as blank values. These were automatically subtracted by the Seahorse analyser software.
# (§5) The changes in ATP production from either respiration or glycolysis were evaluated upon addition of 1000µM of 5-ALA.
# M059K = test: Seahorse XF Real-Time ATP Rate Assay; type: cell-based, human; conditions: M059K cells; 1000µM of 5-ALA; change versus control
# Procedure: as §1, §2, §3, §4, §5
# T98G [5] = test: Seahorse XF Real-Time ATP Rate Assay; type: cell-based, human; conditions: T98G cells; 1000µM of 5-ALA; change versus control
# Procedure: as §1, §2, §3, §4, §5
# U87 [6] = test: Seahorse XF Real-Time ATP Rate Assay; type: cell-based, human; conditions: U87 cells, 1000µM of 5-ALA, change versus control
# Procedure: as §1, §2, §3, §4, §5
# [7] = system: LDH present in cell lysates, Ln18; test: Spectrophotometric LDH kinetics (NADH absorbance at 340 nm), cell lysates; type: biochemical, human; conditions: 0.75 mM 5-ALA, no inhibitor: -1.48
# Procedure: as §1
# (§6) A. enzyme solutions. 0.5 mL of an aqueous LDH solution was mixed with 0.5 mL reaction buffer to start the LDH reduction of pyruvate. The final LDH concentration was always 5 µM.
# [8] = system: LDH present in cell lysates, U87; test: as above; type: biochemical, human; conditions: 0.75 mM 5-ALA, no inhibitor: -1.43
# Procedure: as §1, §6
# [9] = system: LDH present in cell lysates, M059K; test: as above; type: biochemical, human; conditions: 0.75 mM 5-ALA, no inhibitor: -1.47
# Procedure: as §1
# as §6, with “µM. […] The final concentration of 5-ALA in the total volume of the reaction mix (1 mL) was 5 mM for 5-ALA. In the enzymatic assays LDH refers to the LDH-A isoform.” for “µM.”
# (§7) In the second phase of the experiments, the enzymatic activity of LDH present in cell lysates was investigated.
# (§8) Cell lysates were obtained from LN18, T98G, U87 and M059K GBM cells. In brief, cells from confluent T175 flasks were harvested with the use of TrypLE™ Express Enzyme (Gibco, REF# 12604021) and resuspended in ddH2O with Triton™ X-100 (0,25%). The cell lysate measurements were performed according to the enzymatic solution measurents, however in this case, cell lysates equivalent to […] were each time added to the H2O half of the reaction mix. […]
# [10] = system: LDH present in cell lysates, T98G; test: as above; type: biochemical, human; conditions: 0.75 mM 5-ALA, no inhibitor: -1.20
# Procedure: as §1
# as §6, with “µM. […] The final concentration of 5-ALA in the total volume of the reaction mix (1 mL) was 5 mM for 5-ALA. In the enzymatic assays LDH refers to the LDH-A isoform.” for “µM.”
# as §7, §8
# LN18 [11] = test: MTT cell viability assay; type: cell-based, human; conditions: LN18 cells
# Procedure: as §1
# (§9) The cells were incubated with 5, 10 and 20 mM 5-ALA for three days and each day the effect of 5-ALA on their viability was assessed by standard MTT assays at 24, 48 and 72h following incubation. The results are shown in Figure 5 (Error bars represent one SD).
# T98G [12] = test: MTT cell viability assay; type: cell-based, human; conditions: T98G cells; 10mM 5-ALA; after 72h incubation
# Procedure: as §1, §9
# U87 [13] = test: MTT cell viability assay; type: cell-based, human; conditions: U87 cells
# Procedure: as §1, §9
# LDH-A isoform = LDH-A isoform (Homo sapiens, UniProt P00338); test: Spectrophotometric LDH kinetics (NADH absorbance at 340 nm), enzyme solution
# [14] = 10mM 5-ALA, all time points (24, 48 and 72h)
# [15] = 20 mM 5-ALA, compared with the 90-98% reduction at 10mM
smiles,measurement,setting,value
"NCC(=O)CCC(=O)O [5-ALA, 5-Aminolevulinic acid]",glycolytic activity,LN18 [1],drop in the glycolytic activity of those cell lines which was dose dependent
same,glycolytic activity,MO59K,drop in the glycolytic activity of those cell lines which was dose dependent
same,glycolytic activity,T98G [2],drop in the glycolytic activity of those cell lines which was dose dependent
same,glycolytic activity,U87 [3],drop in the glycolytic activity of those cell lines which was dose dependent
same,reduction in glycolytic ATP production,LN18 [4],~-140 pmol/min
same,reduction in glycolytic ATP production,M059K,~ -250 pmole/min
same,reduction in glycolytic ATP production,T98G [5],~-200 pmol/min
same,reduction in glycolytic ATP production,U87 [6],~-200 pmol/min
same,increase in mitochondrial respiration-derived ATP,U87 [6]; marginally significant,~ 100 pmole/min
same,initial slope of NADH absorbance curve (LDH Vmax for the cell lysate volume studied),[7],-0.47
same,initial slope of NADH absorbance curve (LDH Vmax for the cell lysate volume studied),[8],-0.32
same,initial slope of NADH absorbance curve (LDH Vmax for the cell lysate volume studied),[9],-0.53
same,initial slope of NADH absorbance curve (LDH Vmax for the cell lysate volume studied),[10],-0.57
same,reduction in cell viability,LN18 [11]; [14],90-98%
same,reduction in cell viability,LN18 [11]; [15],"in general, maintained"
same,lethality level reached (cell viability),T98G [12],LD40
same,reduction in cell viability,U87 [13]; [14],90-98%
same,reduction in cell viability,U87 [13]; [15],"in general, maintained"
same,initial slope of NADH absorbance curve (corresponds to Vmax of the enzyme),"LDH-A isoform; Enzyme solution, 5 mM 5-ALA, first 5 data points (8 sec), pH 6.5, no inhibitor: -2.28",-0.51
same,activity at 5000 µM,LDH-A isoform; read-out: enzyme function as % of its Vmax,~22%
